Data reported in US20130011921A1, “METHOD FOR PRODUCTION OF ARTIFICIAL PLURIPOTENT STEM CELL” (SAITAMA MEDICAL UNIVERSITY, priority 2010, published 2013).
Entries after “also recorded” stand apart in the source; their conditions may differ.

How the values were obtained:
Nanog-GFP MEF [1] = test: GFP observation of induced mouse iPS cells with a fluorescence microscope; format: cell-based; details: 4F (c-Myc)
Protocol: (§1) For retroviral introduction, a retroviral vector expressing each pluripotency inducer (Oct-3/4, Sox2, KLF4, and c-Myc) was introduced into packaging cells, PLAT-E cells (Kitamura T, et al. (2003) Exp Hematol 31:1007-1014). Culture supernatants of PLAT-E cells were each recovered two days after gene introduction, and filtered through a 0.45 μm cellulose acetate. Polybrene was then added to a final concentration […], an equal amount of each culture supernatant was mixed, and the mixture was added to Nanog-GFP MEF (Okita K, Ichisaka T, Yamanaka S. (2007) nature 448:313-317) for viral infection. Nanog-GFP MEF is a cell being a mouse embryonic fibroblast (MEF) to which a BAC was introduced, wherein a GFP-IRES-Puro^r cassette is inserted into the BAC carrying the mouse Nanog gene.

Nanog-GFP MEF [2] = test: Induction of mouse iPS cells, Puro-resistant AP-positive colonies; format: cell-based
Protocol: as §1
On Day 4 after retroviral infection, these were seeded on STO feeder cells with suppressed proliferation ability from mitomycin C (SIGMA: M4287) treatment (seeded at 2×10^3 cells/ml for cells infected with 4F (c-Myc), 3.5×10^4 cells/ml for 3F), and on the next day cultured in mouse ES cell medium (Nishimoto M, et al. (1999) Mol Cell Biol 19:5453-5465). Thereafter the medium was replaced every two days, replaced with puromycin (Puro)-containing mouse ES cell medium (Puro to a final concentration of […]) on Day 17 after infection, and cultured for eight more days. Alkaline phosphatase (AP) staining was then performed. Nicotinamide was added simultaneously with retroviral infection to a final concentration 4 mM, and then added at the same concentration for every medium exchange.
In order to investigate the optimal treatment time of nicotinamide, nicotinamide was added under each conditions of until Day 24 after retroviral infection (Nam 0-24d), until Day 4 after retroviral infection (Nam 0-4d), and from Day 4 to Day 24 after retroviral infection (Nam 4-24d), and iPS cells were induced by 4F (c-Myc). Experimental method other than the […] treatment time was in accordance with Test 1.
Consequently, resveratrol which activates sirtuin (SIRT1) was added to the medium instead of nicotinamide to investigate the induction effect of iPS cells. Experimental method was in accordance with Test 2, except that resveratrol (Res) was added to the medium to a final concentration 100 μM.

Nanog-GFP MEF [3] = test: Induction of mouse iPS cells in the presence of MEK inhibitor and GSK-3 inhibitor (2i method), fluorescence microscope; format: cell-based; details: 4F (c-Myc); nicotinamide treatment followed by 2i method; FIGS. 7C and 7D
Protocol: Nanog-GFP MEF was subjected to forced expression of 4F(c-Myc) retrovirally. These were seeded on feeder cells on Day 4 after retroviral infection, and cultured in mouse ES cell medium from the following day. This was replaced with a serum-free mouse ES cell medium comprising PD0325901 (1 μM) and CHIR99021 (3 μM) (2i medium) from Day 12 after infection. […] As the control zone, culturing was also performed in a serum-free mouse ES cell medium without PD0325901 and CHIR99021 from 12 days after infection for four days. It was confirmed that true iPS cells are increased by the 2i method (FIGS. 7A and 7B).

human fibroblasts = test: Induction of human iPS cells in the presence of nicotinamide, AP-positive colonies; format: cell-based
Protocol: For retroviral introduction, retroviral vectors expressing each pluripotency inducer (Oct-3/4, Sox2, KLF4, and c-Myc) were introduced into packaging cells, PLAT-GP cells (Morita S, et al. (2000) Gene Therapy 7:1063-1066). Culture supernatants of PLAT-GP cells were each recovered two days after gene introduction, and filtered through a 0.45 μm cellulose acetate. Polybrene was then added to a final concentration […], an equal amount of each culture supernatant was mixed, and the mixture was added to human fibroblasts for viral infection. These were seeded on feeder cells on Day 6 after retroviral infection (4F (c-Myc): 2.5×10^4; 4F (L-Myc): 5.0×10^4), and cultured in human ES cell medium on the following day (Takahashi K, et al (2007) Cell 131:861-872). Thereafter the medium was exchanged every two days, and cultured until thirty days after infection. Alkaline phosphatase (AP) staining was then performed, and the number of AP-positive colonies was counted. Nicotinamide was added simultaneously with retroviral infection to a final concentration 4 mM, and then added at the same concentration for every medium exchange until Day 6 after infection. The control zone was cultured to thirty days after infection without adding nicotinamide.

Nanog-GFP MEF [4] = test: Inspection on Day 4 after retroviral infection (colonies, cell count, AP staining, undifferentiated markers); format: cell-based, mouse
Protocol: As a result, iPS cell-like colonies were recognized in the Nam treatment group, but not in the untreated control group. (FIGS. 4 and 5A). Next, in order to investigate the influence of nicotinamide on Day 4 after infection, the number of cells was counted and AP staining was performed. […] Further, as a result of investigating the expression of various undifferentiated markers, it became clear that the expression of undifferentiated markers was increased compared to the non-treatment group due to nicotinamide treatment (data not shown). Accordingly, it became clear that iPS cell induction was already promoted on Day 4 after infection by nicotinamide treatment.

Nanog-GFP MEF [5] = test: 2i method timing and combination with nicotinamide, Puro-resistant AP-positive colonies; format: cell-based, mouse
Protocol: Nanog-GFP MEF was subjected to forced expression of 4F(c-Myc) retrovirally. These were seeded on feeder cells on Day 4 after retroviral infection, and cultured in mouse ES cell medium from the following day until replaced with the 2i medium. Culturing in the 2i medium was initiated on (1) Day 5, (2) Day 7, (3) Day 9, (4) Day 11, (5) Day 13, and (6) Day 15 after retroviral infection, and continued until Day 17 after infection. From Day 17 after infection, drug selection by Puro was performed for eight days, and then AP staining was performed. […] Next, in order to compare when the nicotinamide treatment is performed simultaneously with retroviral infection and when it is performed after one day post infection, investigation was performed in accordance with the conditions of Test 5 (1).

## NC(=O)c1cccnc1 [nicotinamide]
Nanog-GFP MEF [1]; after drug selection by Puro, FIG. 2 lower column
  GFP color development vs non-administration group: more intense color development
Nanog-GFP MEF [1]; without drug selection by Puro, FIG. 2 upper column
  GFP color development vs nicotinamide-untreated control cells: slightly more intense color development
Nanog-GFP MEF [2]; 4F (c-Myc), nicotinamide added Day 0 to Day 4 (Nam 0-4d), FIG. 3
  number of Puro-resistant colonies: similarly significantly increased
Nanog-GFP MEF [2]; 4F (c-Myc), nicotinamide added Day 0 to Day 24 (Nam 0-24d), FIG. 3
  number of Puro-resistant colonies: significantly increased
Nanog-GFP MEF [2]; 4F (c-Myc), nicotinamide added on or after Day 4 (Nam 4-24d), FIG. 3
  effect of increasing the number of Puro-resistant colonies: barely obtained
Nanog-GFP MEF [2]; cells infected with 3F (without c-Myc), nicotinamide 4 mM, FIG. 1C
  increase in induction efficiency (Puro-resistant AP-positive colonies): not seen
Nanog-GFP MEF [2]; cells infected with 4F (c-Myc), nicotinamide 4 mM from infection, at every medium exchange, FIG. 1A, 1B
  number of colonies showing resistance to puromycin (Puro-resistant AP-positive colonies): significantly increased
Nanog-GFP MEF [3]
  true iPS cells: dramatic increase
Human fibroblasts; L-Myc as the Myc family gene, 4F (L-Myc), FIG. 10B
  induction efficiency of iPS cells: increased
Human fibroblasts; c-Myc as the Myc family gene, 4F (c-Myc), FIG. 10A
  induction efficiency of iPS cells: increased
Human fibroblasts; nicotinamide 4 mM until Day 6, counted thirty days after infection, vs zone without nicotinamide, FIG. 10
  number of AP-positive colonies: increased
Nanog-GFP MEF [4]; Day 4 after infection, FIG. 5C
  number of AP-positive colonies: significant increase
Nanog-GFP MEF [4]; Day 4 after infection, vs non-treatment cell group, FIG. 5B
  number of cells: increase
Nanog-GFP MEF [4]; Day 4 after infection, vs non-treatment group, data not shown
  expression of undifferentiated markers: increased
Nanog-GFP MEF [4]; Day 4 after retroviral infection, vs untreated control group, FIGS. 4 and 5A
  iPS cell-like colonies: recognized
Nanog-GFP MEF [5]; nicotinamide 4 mM Day 0 to Day 4 plus 2i method as Test 5 (1), FIG. 9A
  proportion of true iPS cells: significantly increased
Nanog-GFP MEF [5]; nicotinamide treatment combined with 2i method, FIG. 9
  induction efficiency compared to the conventional method: about 10 times
Nanog-GFP MEF [5]; with 2i method as Test 5 (1), FIG. 9B
  induction efficiency, nicotinamide Day 1 to Day 4 relative to Day 0 to Day 4: three-fold; also recorded: three times or more

## Oc1ccc(C=Cc2cc(O)cc(O)c2)cc1 [resveratrol]
Nanog-GFP MEF [2]; 4F (c-Myc), resveratrol 100 μM added Day 0 to Day 4, vs DMSO control, FIG. 6
  number of Puro-resistant colonies: significantly decreased
Nanog-GFP MEF [2]; 4F (c-Myc), resveratrol 100 μM added Day 0 to Day 17, vs DMSO control, FIG. 6
  number of Puro-resistant colonies: significantly decreased
Nanog-GFP MEF [2]; 4F (c-Myc), resveratrol 100 μM added on Day 4 after introduction, FIG. 6
  number of Puro-resistant colonies: relatively large number
